Assay results taken from US20250288652A1, “BACTERIOPHAGE LYSINE, CHIMERA THEREOF AND APPLICATION THEREOF” (priority 2021, published 2025).
Several values for one entry are separate records, joined by “and”; a condition that tells them apart may be missing. Equal entries are not always repeated.

Assays:
Type in all cases: cell-based
Propionibacterium acnes [1] = experiment: MIC of selected lysin after single-step purification, Example 8; conditions: single-step purified lysin
Procedure: Express PACL 10, 390, 391, 392, 403 and 404 according to the method of Examples 1-4, and perform the following single-step purification: put Escherichia coli BL21 (DE3) containing each recombinant expression plasmid in the self-induction medium incubate at 37° C., 300 rpm for 3 hours, then at 18° C., 300 rpm for 16-18 hours. Cells were collected by centrifugation and lysed by homogenizatoin under high pressure. Clarified lysate from 1 L of E. coli culture medium expressing the protein of interest was loaded onto a 26 mm/200 mm column containing 70 mL of purification resin. The lysin was purified according to the conditions in Table 8-1, and the purity determination of the lyase after single-step purification is shown in FIG. 5. These lysin are used to determine the minimal inhibitory concentration (MIC).
The minimal inhibitory concentration (MIC) determination method is as follows. Propionibacterium acnes is streaked on Fortified Clostridium Agar (Fortified Clostridium Medium RCM with 1.5% agar, RCM was prepared according to the revised recipe, per liter—10 g acid hydrolyzed casein, 10 g beef extract, 3 g yeast extract, 5 g D—glucose, 5 g sodium chloride, 3 g sodium acetate, 0.5 g L-cysteine hydrochloride). Plates were incubated anaerobically at 37° C. for 72 hours. The inoculum for MIC determination was first prepared by resuspending single clones from RCA in 0.9% saline to an OD600 of 0.05, corresponding to 10^7 colony-forming units per milliliter (cfu/mL). The suspension was diluted 20-fold in RCM to an inoculum of 5*10^5 cfu/mL. Two-fold serial dilutions of each lyase were prepared in 0.9% saline and added not to exceed one-tenth of the total culture volume. Cultures were grown anaerobically at 37° C. for 48-72 hours. The MIC is the lowest concentration of lyase at which no growth of P. acnes can be observed with the naked eye.

Propionibacterium acnes [2] = experiment: Minimum inhibitory concentration (MIC) determination, Example 6; conditions: Cutibacterium acnes
Procedure: (§1) The minimal inhibitory concentration (MIC) determination method is as follows. First prepare a colony suspension in 0.9% saline to an OD600 of 0.05 to prepare an inoculum, which corresponds to 10^7 colony-forming units per mL (cfu/mL). The suspension was diluted 20 times in agar-free enhanced Clostridium medium (RCM) to an inoculum of 5*10^5 cfu/mL. Prepare 2-fold serial dilutions of PACL10 or vancomycin with 0.9% saline and add no more than one-tenth of the total culture. Cultures were grown anaerobically at 37° C. for 3 days. The MIC is the lowest concentration of PACL10 or vancomycin at which no growth of P. acnes can be observed with the naked eye. The minimum bactericidal concentration (MBC) was determined by subculturing the above cultures on enhanced Clostridium agar (RCA) plates containing 0.1% Tween-80. MBC is the lowest concentration of PACL10 or vancomycin at which no P. acnes colonies are seen on the enhanced Clostridium agar (RCA) plate.

Propionibacterium acnes [3] = experiment: Minimum bactericidal concentration (MBC) determination, Example 6; conditions: Cutibacterium acnes
Procedure: as §1

CN(C)[C@@H]1C(O)=C(C(N)=O)C(=O)[C@@]2(O)C(O)=C3C(=O)c4c(O)cccc4[C@@](C)(O)[C@H]3C[C@@H]12 [Tetracycline, reference compound]
8 µg/mL: MIC (Propionibacterium acnes [1]; Cutibacterium acnes, clade IA2, strain 33, read-out: MIC of selected lyases relative to Propionibacterium acnes) | MIC of selected lyases relative to Propionibacterium acnes (Propionibacterium acnes [1]; clade IA1, strain 1) | MIC of selected lyases relative to Propionibacterium acnes (Propionibacterium acnes [1]; clade IA1, strain 5) | MIC of selected lyases relative to Propionibacterium acnes (Propionibacterium acnes [1]; clade IA1, strain 7) | MIC of selected lyases relative to Propionibacterium acnes (Propionibacterium acnes [1]; clade IA2, strain 10) | MIC of selected lyases relative to Propionibacterium acnes (Propionibacterium acnes [1]; clade IA2, strain 17) | MIC of selected lyases relative to Propionibacterium acnes (Propionibacterium acnes [1]; clade II, strain 34)

CN[C@H](CC(C)C)C(=O)N[C@H]1C(=O)N[C@@H](CC(N)=O)C(=O)N[C@H]2C(=O)N[C@H]3C(=O)N[C@H](C(=O)N[C@H](C(=O)O)c4cc(O)cc(O)c4-c4cc3ccc4O)[C@H](O)c3ccc(c(Cl)c3)Oc3cc2cc(c3O[C@@H]2O[C@H](CO)[C@@H](O)[C@H](O)[C@H]2O[C@H]2C[C@](C)(N)[C@H](O)[C@H](C)O2)Oc2ccc(cc2Cl)[C@H]1O [Vancomycin, reference compound]
1 µg/mL and 0.673 µM: MIC (Propionibacterium acnes [2]; clade IA1, strain 5) | MIC (Propionibacterium acnes [2]; clade IA1, strain 15) | MIC (Propionibacterium acnes [2]; clade IA1, strain 27) | MIC (Propionibacterium acnes [2]; clade IB, strain 13) | MBC (Propionibacterium acnes [3]; clade IA1, strain 5) | MBC (Propionibacterium acnes [3]; clade IA1, strain 7) | MBC (Propionibacterium acnes [3]; clade IA1, strain 15) | MBC (Propionibacterium acnes [3]; clade IA1, strain 27) | MBC (Propionibacterium acnes [3]; clade IA2, strain 10) | MBC (Propionibacterium acnes [3]; clade IA2, strain 14) | MBC (Propionibacterium acnes [3]; clade IA2, strain 33A) | MBC (Propionibacterium acnes [3]; clade IB, strain 13)
0.5 µg/mL and 0.337 µM: MIC (Propionibacterium acnes [2]; clade IA1, strain 1) | MIC (Propionibacterium acnes [2]; clade IA1, strain 7) | MIC (Propionibacterium acnes [2]; clade IA2, strain 10) | MIC (Propionibacterium acnes [2]; clade IA2, strain 14) | MIC (Propionibacterium acnes [2]; clade IA2, strain 17) | MIC (Propionibacterium acnes [2]; clade IA2, strain 31) | MIC (Propionibacterium acnes [2]; clade IA2, strain 33A) | MIC (Propionibacterium acnes [2]; clade II, strain 34A) | MBC (Propionibacterium acnes [3]; clade IA1, strain 1) | MBC (Propionibacterium acnes [3]; clade IA2, strain 17) | MBC (Propionibacterium acnes [3]; clade IA2, strain 31) | MBC (Propionibacterium acnes [3]; clade II, strain 34A)

B1: PACL390: chimeric lysin, amino acid sequence SEQ ID NO: 258 (protein)
chain: MTFIQAAHHSSGSNLPPTRVVIHATCPEMGFPKASAKGRAVSTARYFQSASSGGSAHYVVDIGETVQCLGENVIAWHAPPNAHSLGIEICADGGSATSFSNPKVRYTRAQWLSPQVWPAVLRAAALTRKMCSKYGIPVVKLSASDLKAGKKGICGHVDVSNAFHQSDHDDPGPDFPWAEFMAAVKGGPGQQDTKPSVPTPSLTEIGDQDMNGCYYNLNSKTRTYLIFDSRSGFYHEFSQGNGNGPMSPDYVNPIAKGWDTGSWPAISPGHAKVLKAALDKVRKGI
modifications: PACL390
8 µg/mL: MIC of selected lyases relative to Propionibacterium acnes (Propionibacterium acnes [1]; clade IA1, strain 1) | MIC of selected lyases relative to Propionibacterium acnes (Propionibacterium acnes [1]; clade IA1, strain 5) | MIC of selected lyases relative to Propionibacterium acnes (Propionibacterium acnes [1]; clade IA1, strain 7) | MIC of selected lyases relative to Propionibacterium acnes (Propionibacterium acnes [1]; clade IA2, strain 10) | MIC of selected lyases relative to Propionibacterium acnes (Propionibacterium acnes [1]; clade IA2, strain 17) | MIC of selected lyases relative to Propionibacterium acnes (Propionibacterium acnes [1]; clade IA2, strain 33) | MIC of selected lyases relative to Propionibacterium acnes (Propionibacterium acnes [1]; clade II, strain 34)

B2: PACL391: chimeric lysin, amino acid sequence SEQ ID NO: 259 (protein)
chain: MTFIQAAHHSSGSNLPPTRVVIHATCPELGFPRASAKGRAVSTARYFQSAISGGSAHYVVDVGETVQCLAEDVIAWHAPPNSRSLGIEICADGGSATSFKNPNVRYSRAQWLSPQVWPAVLRAAALTRQMCQKYGIPVTKLSASDLKAGKKGICGHVDVSNAWHQSDHDDPGPDFPWAEFMAAVKGGATNPGGEVRTPGQQDTKPSVPTPSLTEIGDQDMNGCYYNLNSKTRTYLIFDSRSGFYHEFSQGNGNGPMSPDYVNPIAKGWDTGSWPAISPGHAKVLKAALDKVRKGI
modifications: PACL391
32 µg/mL: MIC of selected lyases relative to Propionibacterium acnes (Propionibacterium acnes [1]; clade IA2, strain 10) | MIC of selected lyases relative to Propionibacterium acnes (Propionibacterium acnes [1]; clade IA2, strain 17)
16 µg/mL: MIC of selected lyases relative to Propionibacterium acnes (Propionibacterium acnes [1]; clade IA1, strain 5) | MIC of selected lyases relative to Propionibacterium acnes (Propionibacterium acnes [1]; clade IA2, strain 33)
8 µg/mL: MIC of selected lyases relative to Propionibacterium acnes (Propionibacterium acnes [1]; clade IA1, strain 1) | MIC of selected lyases relative to Propionibacterium acnes (Propionibacterium acnes [1]; clade IA1, strain 7) | MIC of selected lyases relative to Propionibacterium acnes (Propionibacterium acnes [1]; clade II, strain 34)

B3: PACL392: chimeric lysin, amino acid sequence SEQ ID NO: 260 (protein)
chain: MTFIQAAHHSSGSNLPPTRVVIHATCPELGFPRASAKGRAVSTARYFQSAISGGSAHYVVDVGETVQCLAEDVIAWHAPPNSRSLGIEICADGGSATSFKNPNVRYSRAQWLSPQVWPAVLRAAALTRQMCQKYGIPVTKLSASDLKAGKKGICGHVDVSNAWHQSDHDDPGPDFPWAEFMAAVKGGATNPGGPGQQDTKPSVPTPSLTEIGDQDMNGCYYNLNSKTRTYLIFDSRSGFYHEFSQGNGNGPMSPDYVNPIAKGWDTGSWPAISPGHAKVLKAALDKVRKGI
modifications: PACL392
16 µg/mL: MIC of selected lyases relative to Propionibacterium acnes (Propionibacterium acnes [1]; clade IA2, strain 10) | MIC of selected lyases relative to Propionibacterium acnes (Propionibacterium acnes [1]; clade IA2, strain 17)
8 µg/mL: MIC of selected lyases relative to Propionibacterium acnes (Propionibacterium acnes [1]; clade IA1, strain 1) | MIC of selected lyases relative to Propionibacterium acnes (Propionibacterium acnes [1]; clade IA1, strain 5) | MIC of selected lyases relative to Propionibacterium acnes (Propionibacterium acnes [1]; clade IA1, strain 7) | MIC of selected lyases relative to Propionibacterium acnes (Propionibacterium acnes [1]; clade IA2, strain 33) | MIC of selected lyases relative to Propionibacterium acnes (Propionibacterium acnes [1]; clade II, strain 34)

B4: PACL404: chimeric lysin, amino acid sequence SEQ ID NO: 272 (protein)
chain: MTFIQAAHHSSGSNLPPTRVVIHATCPEMGFPKASAKGRAVSTARYFQSASSGGSAHYVVDIGETVQCLGENVIAWHAPPNAHSLGIEICADGGSATSFSNPKVRYTRAQWLSPQVWPAVLRAAALTRKMCSKYGIPVVKLSASDLKAGKKGICGHVDVSNAFHQSDHDDPGPDFPWAEFMAAVKGGTTTQEDEDEMKEAGGPGQQDTKPSVPTPSLTEIGDQDMNGCYYNLNSKTRTYLIFDSRSGFYHEFSQGNGNGPMSPDYVNPIAKGWDTGSWPAISPGHAKVLKAALDKVRKGI
modifications: PACL404
8 µg/mL: MIC of selected lyases relative to Propionibacterium acnes (Propionibacterium acnes [1]; clade IA1, strain 1) | MIC of selected lyases relative to Propionibacterium acnes (Propionibacterium acnes [1]; clade IA2, strain 17) | MIC of selected lyases relative to Propionibacterium acnes (Propionibacterium acnes [1]; clade IA2, strain 33) | MIC of selected lyases relative to Propionibacterium acnes (Propionibacterium acnes [1]; clade II, strain 34)
16 µg/mL: MIC of selected lyases relative to Propionibacterium acnes (Propionibacterium acnes [1]; clade IA1, strain 5) | MIC of selected lyases relative to Propionibacterium acnes (Propionibacterium acnes [1]; clade IA1, strain 7) | MIC of selected lyases relative to Propionibacterium acnes (Propionibacterium acnes [1]; clade IA2, strain 10)
